Laboratory results: patent publication US20240209028A1, “CNP COMPOUNDS” (priority 2022, published 2024)
In brackets after ≈: the same amount, converted by molar mass. Like-named read-outs stand apart in the source and are kept apart here. Starred links: 1 amine or outer side, 2 acyl side, 3 side chain; linkers in the order of their positions; H or OH if unused. Positions of bridges follow the written chain, without caps; N, C: chain ends. Residues, ends and D or L forms follow the SMILES beside them. *: point of attachment. C18 diacid = O=C(O)CCCCCCCCCCCCCCCCC(=O)*; γGlu = O=C(O)[C@H](CCC(=O)[*:2])N[*:1]; AEEA = NCCOCCOCC(=O)O

Tests used:
[1] = Solubility of CNP compounds at pH 4.0 and pH 6.5; format: physicochemical
Method in brief: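 Freeze-dried peptide was brought to a nominal ≥4000-5000 nmol/mL in 5 mM sodium acetate, 250 mM glycerol (pH 4.0) or in 8 mM sodium phosphate, 23 mg/mL glycerol (pH 6.5 via NaOH titration). Samples were equilibrated at room temperature overnight if undissolved, and supernatant concentration was measured by CAD.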

[2] = Thioflavin T (ThT) assay: lagtime and peptide recovery; format: physicochemical; conditions: assay terminated after 45 hours; for LagTime (h) at pH 6.5: ThT assay, pH 6.5, 37° C.; for LagTime (h) at pH 4.0: ThT, 37° C., shaking
Source text: The ThT assay was used to evaluate physical stability of the CNP compounds and their suitability for liquid formulation. Low physical stability of peptides may lead to amyloid fibril formation, which is observed as well-ordered, thread-like macromolecular structures in the sample eventually resulting in gel formation. This has traditionally been tested by visual inspection of the sample. However, that kind of measurement is very subjective and depending on the observer. Therefore, the application of a small molecule indicator probe is much more advantageous. Thioflavin T (ThT) is such a probe and has a distinct fluorescence signature when binding to fibrils [Naiki et al. (1989) Anal. Biochem. 177, 244-249; LeVine (1999) Methods. Enzymol. […], 274-284].
Procedure: Thioflavin T was added to the supernatant samples from Example 5 (pH 4.0 and 6.5) using an aqueous ThT stock solution to a final concentration of about 1 μM in the samples. Sample aliquots of 150 μL were placed in a 96 well microtiter plate (Packard OptiPlate™-96, white polystyrene). Usually, two to three replicas of each sample were applied to the plate. The plate was sealed and placed in a fluorescence plate reader (Fluoroskan Ascent FL) and incubated at 37° C. with orbital shaking (960 rpm; 1 mm amplitude). Fluorescence measurements were performed every 20 minutes using excitation through a 444 nm filter and measurement of emission through a 485 nm filter. Between each measurement, the plate was shaken and heated as described above and the assay was terminated after 45 hours. Fluorescence measurements for each microtiter plate well were plotted against time and the lag-time (time until an increase in ThT fluorescence was observed) was estimated.
To assess loss of dissolved peptide following 45h incubation, peptide recovery was measured as the ratio between total peak area after incubation vs. before incubation using the RP-UPLC method described below.
Measurement of LagTime and Peptide recovery % using RP-UPLC: RP-UPLC was conducted using an Acquity UPLC BEH C18 1.7 μm (2.1×30 mm) Waters column (Eluent A: 0.1% v/v % TFA in water; Eluent B: 0.1% v/v TFA in acetonitrile/water 4:1) with gradient elution (0 min: 95% A; 2 min: 20% A; 2.3 min: 20% A; 2.4 min: 95% A; 9 min: 95% A) in a flow rate of 0.9 mL/min and a column temperature of 30° C. UV-detection at 215 nm was used to assess the total peptide area.
Samples at pH 4.0 were prepared as described in Example 5 and subjected to the ThT assay as described above.
Samples at pH 6.5 were prepared as described in Example 5 and subjected to the ThT assay as described above.

[3] = 8 mM sodium phosphate, 23 mg/mL glycerol, pH 6.5, room temperature, read-out: Solubility at pH 6.5
[4] = 5 mM sodium acetate, 250 mM glycerol, pH 4.0, room temperature, read-out: Solubility at pH 4.0

With CC[C@H](C)[C@@H]1NC(=O)[C@H](CCCNC(=N)N)NC(=O)[C@H](CC(=O)O)NC(=O)[C@H](CC(C)C)NC(=O)[C@@H]2CCCN2C(=O)[C@H](CC(C)C)NC(=O)CNC(=O)[C@H](Cc2ccccc2)NC(=O)[C@@H](NC(=O)CNC(=O)[C@H](CCC(N)=O)NC(=O)[C@H](CO)NC(=O)[C@H](CC(C)C)NC(=O)CNC(=O)[C@H](CCCCN)NC(=O)[C@H](CCCCN)NC(=O)[C@H](CCC(N)=O)NC(=O)[C@H](C)NC(=O)CNC(=O)[C@H](CCCCN)NC(=O)[C@H](Cc2ccc(O)cc2)NC(=O)[C@H](CCCCN)NC(=O)[C@H](CCCNC(=N)N)NC(=O)[C@H](C)NC(=O)[C@H](CCC(N)=O)NC(=O)[C@@H]2CCCN2C(=O)[C@H](Cc2c[nH]cn2)NC(=O)[C@H](CCC(=O)O)NC(=O)[C@H](CCC(N)=O)NC(=O)COCCOCCNC(=O)COCCOCCNC(=O)CC[C@H](NC(=O)CC[C@H](NC(=O)CC[C@H](NC(=O)CC[C@H](NC(=O)CC[C@H](NC(=O)CC[C@H](NC(=O)CCCCCCCCCCCCCCCCC(=O)O)C(=O)O)C(=O)O)C(=O)O)C(=O)O)C(=O)O)C(=O)O)CSSC[C@@H](C(=O)O)NC(=O)CNC(=O)[C@H](CC(C)C)NC(=O)CNC(=O)[C@H](CO)NC(=O)[C@H](CC(C)C)NC(=O)[C@H](CO)NC(=O)CNC1=O [compound 1402] ({C18 diacid-γGlu-γGlu-γGlu-γGlu-γGlu-γGlu-AEEA-AEEA}-QEHPQARKYKGAQKKGLSQGCFGLPLDRIGSLSGLGC-OH; disulfide 21-37) the solubility [1, 3] was 10 mM (≈ 53 mg/mL) and the “LagTime (h) at pH 6.5” value [2] was 45 h.

In the case of CC[C@H](C)[C@@H]1NC(=O)[C@H](CCCNC(=N)N)NC(=O)[C@H](CC(=O)O)NC(=O)[C@H](CC(C)C)NC(=O)[C@@H]2CCCN2C(=O)[C@H](CC(C)C)NC(=O)CNC(=O)[C@H](Cc2ccccc2)NC(=O)[C@@H](NC(=O)CNC(=O)[C@H](CCC(N)=O)NC(=O)[C@H](CO)NC(=O)[C@H](CO)NC(=O)CNC(=O)[C@H](CCCCN)NC(=O)[C@H](CCCCN)NC(=O)[C@H](CCC(N)=O)NC(=O)[C@H](C)NC(=O)CNC(=O)[C@@H]2CCCN2C(=O)[C@H](C)NC(=O)[C@H](CCC(N)=O)NC(=O)CNC(=O)[C@@H]2CCCN2C(=O)[C@H](C)NC(=O)[C@H](CCC(N)=O)NC(=O)CNC(=O)[C@@H]2CCCN2C(=O)[C@H](C)NC(=O)[C@H](CCC(N)=O)NC(=O)CNC(=O)COCCOCCNC(=O)COCCOCCNC(=O)CC[C@H](NC(=O)CCCCCCCCCCCCCCCCC(=O)O)C(=O)O)CSSC[C@@H](C(=O)O)NC(=O)CNC(=O)[C@H](CC(C)C)NC(=O)CNC(=O)[C@H](CO)NC(=O)[C@H](CC(C)C)NC(=O)[C@H](CO)NC(=O)CNC1=O [compound 1457] ({C18 diacid-γGlu-AEEA-AEEA}-GQAPGQAPGQAPGAQKKGSSQGCFGLPLDRIGSLSGLGC-OH; disulfide 23-39), the solubility [1, 3] is reported as 8.96 mM (≈ 39.5 mg/mL) and the “LagTime (h) at pH 6.5” value [2] is reported as 45 h.

With CC[C@H](C)[C@@H]1NC(=O)[C@H](CCCNC(=N)N)NC(=O)[C@H](CC(=O)O)NC(=O)[C@H](CC(C)C)NC(=O)[C@@H]2CCCN2C(=O)[C@H](CC(C)C)NC(=O)CNC(=O)[C@H](Cc2ccccc2)NC(=O)[C@@H](NC(=O)CNC(=O)[C@H](CO)NC(=O)[C@H](CO)NC(=O)[C@@H](NC(=O)CNC(=O)[C@H](CCCCN)NC(=O)[C@H](CCCCN)NC(=O)[C@H](CCC(N)=O)NC(=O)[C@H](C)NC(=O)CNC(=O)[C@H](Cc2c[nH]cn2)NC(=O)[C@H](Cc2ccc(O)cc2)NC(=O)[C@H](CCCCN)NC(=O)[C@H](CCCNC(=N)N)NC(=O)[C@H](C)NC(=O)COCCOCCNC(=O)COCCOCCNC(=O)CC[C@H](NC(=O)CC[C@H](NC(=O)CC[C@H](NC(=O)CCCCCCCCCCCCCCCCC(=O)O)C(=O)O)C(=O)O)C(=O)O)C(C)C)CSSC[C@@H](C(=O)O)NC(=O)CNC(=O)[C@H](CC(C)C)NC(=O)CNC(=O)[C@H](CO)NC(=O)[C@H](CC(C)C)NC(=O)[C@H](CO)NC(=O)CNC1=O [compound 1422] ({C18 diacid-γGlu-γGlu-γGlu-AEEA-AEEA}-ARKYHGAQKKGVSSGCFGLPLDRIGSLSGLGC-OH; disulfide 16-32) the solubility [1, 4] was 8.29 mM (≈ 35.1 mg/mL) and the “LagTime (h) at pH 4.0” value [2] was 45 h.

For CC[C@H](C)[C@@H]1NC(=O)[C@H](CCCNC(=N)N)NC(=O)[C@H](CC(=O)O)NC(=O)[C@H](CC(C)C)NC(=O)[C@@H]2CCCN2C(=O)[C@H](CC(C)C)NC(=O)CNC(=O)[C@H](Cc2ccccc2)NC(=O)[C@@H](NC(=O)CNC(=O)[C@H](CCC(N)=O)NC(=O)[C@H](CO)NC(=O)[C@H](CC(C)C)NC(=O)CNC(=O)[C@H](CCCCN)NC(=O)[C@H](CCCCN)NC(=O)[C@H](CCC(N)=O)NC(=O)[C@H](C)NC(=O)CNC(=O)[C@H](CCCCN)NC(=O)[C@H](Cc2ccc(O)cc2)NC(=O)COCCOCCNC(=O)COCCOCCNC(=O)COCCOCCNC(=O)COCCOCCNC(=O)CC[C@H](NC(=O)CC[C@H](NC(=O)CCCCCCCCCCCCCCCCC(=O)O)C(=O)O)C(=O)O)CSSC[C@@H](C(=O)O)NC(=O)CNC(=O)[C@H](CC(C)C)NC(=O)CNC(=O)[C@H](CO)NC(=O)[C@H](CC(C)C)NC(=O)[C@H](CO)NC(=O)CNC1=O [compound 1478] ({C18 diacid-γGlu-γGlu-AEEA-AEEA-AEEA-AEEA}-YKGAQKKGLSQGCFGLPLDRIGSLSGLGC-OH; disulfide 13-29; C-terminus assumed), the solubility [1, 4] was 6.51 mM (≈ 26.6 mg/mL), the solubility [1, 3] was 2.18 mM (≈ 8.9 mg/mL) and the “LagTime (h) at pH 6.5” value [2] was 45 h. For the same molecule, the “LagTime (h) at pH 4.0” value [2] was 0.33 h.

In the case of CC[C@H](C)[C@@H]1NC(=O)[C@H](CCCNC(=N)N)NC(=O)[C@H](CC(=O)O)NC(=O)[C@H](CC(C)C)NC(=O)[C@@H]2CCCN2C(=O)[C@H](CC(C)C)NC(=O)CNC(=O)[C@H](Cc2ccccc2)NC(=O)[C@@H](NC(=O)CNC(=O)[C@H](CO)NC(=O)[C@H](CO)NC(=O)[C@H](CC(C)C)NC(=O)CNC(=O)[C@H](CCCCN)NC(=O)[C@H](CCCCN)NC(=O)[C@H](CCC(N)=O)NC(=O)[C@H](C)NC(=O)CNC(=O)[C@H](CCCCN)NC(=O)[C@H](Cc2ccc(O)cc2)NC(=O)[C@H](CCCCN)NC(=O)[C@H](CCCNC(=N)N)NC(=O)[C@H](C)NC(=O)[C@H](CCC(N)=O)NC(=O)[C@@H]2CCCN2C(=O)[C@H](Cc2c[nH]cn2)NC(=O)[C@H](CCC(=O)O)NC(=O)[C@H](CCC(N)=O)NC(=O)CC[C@H](NC(=O)CC[C@H](NC(=O)CC[C@H](NC(=O)CC[C@H](NC(=O)CC[C@H](NC(=O)CCCCCCCCCCCCCCCCC(=O)O)C(=O)O)C(=O)O)C(=O)O)C(=O)O)C(=O)O)CSSC[C@@H](C(=O)O)NC(=O)CNC(=O)[C@H](CC(C)C)NC(=O)CNC(=O)[C@H](CO)NC(=O)[C@H](CC(C)C)NC(=O)[C@H](CO)NC(=O)CNC1=O [compound 9482] ({C18 diacid-γGlu-γGlu-γGlu-γGlu-γGlu}-QEHPQARKYKGAQKKGLSSGCFGLPLDRIGSLSGLGC-OH; disulfide 21-37), the solubility [1, 4] is reported as 0.099 mM (≈ 0.478 mg/mL), the solubility [1, 3] is reported as 5.32 mM (≈ 25.7 mg/mL) and the “LagTime (h) at pH 6.5” value [2] is reported as 45 h.

With CC[C@H](C)[C@@H]1NC(=O)[C@H](CCCNC(=N)N)NC(=O)[C@H](CC(=O)O)NC(=O)[C@H](CC(C)C)NC(=O)[C@@H]2CCCN2C(=O)[C@H](CC(C)C)NC(=O)CNC(=O)[C@H](Cc2ccccc2)NC(=O)[C@@H](NC(=O)CNC(=O)[C@H](CCC(N)=O)NC(=O)[C@H](CO)NC(=O)[C@H](CC(C)C)NC(=O)CNC(=O)[C@H](CCCCN)NC(=O)[C@H](CCCCN)NC(=O)[C@H](CCC(N)=O)NC(=O)[C@H](C)NC(=O)CNC(=O)[C@@H]2CCCN2C(=O)[C@H](C)NC(=O)[C@H](CCC(N)=O)NC(=O)CNC(=O)COCCOCCNC(=O)COCCOCCNC(=O)CC[C@H](NC(=O)CCCCCCCCCCCCCCCCC(=O)O)C(=O)O)CSSC[C@@H](C(=O)O)NC(=O)CNC(=O)[C@H](CC(C)C)NC(=O)CNC(=O)[C@H](CO)NC(=O)[C@H](CC(C)C)NC(=O)[C@H](CO)NC(=O)CNC1=O [compound 1484] ({C18 diacid-γGlu-AEEA-AEEA}-GQAPGAQKKGLSQGCFGLPLDRIGSLSGLGC-OH; disulfide 15-31; C-terminus assumed) the solubility [1, 3] was 2.33 mM (≈ 8.7 mg/mL) and the “LagTime (h) at pH 6.5” value [2] was 4 h.
